Earlier results as cited in patent publication US9511020B2, “Controlled release corticosteroid compositions and methods for the treatment of otic disorders” (priority 2008, dated 2016).

Columns and labels:
[1] = for Glucocorticoid potency: relative potency
[2] = relative potency

Row | Compound | Glucocorticoid potency [1] | Mineralocorticoid potency [2] | potency relative to endogenous cortisol ([1]; times the potency of endogenous cortisol)
1 | C[C@]12CCC(=O)C=C1CC[C@@H]1[C@@H]2[C@@H](O)C[C@]2(C=O)[C@@H](C(=O)CO)CC[C@@H]12 [aldosterone] | 0.07 | 1.0 | –
2 | C[C@]12CCC(=O)C=C1CC[C@@H]1[C@@H]2[C@@H](O)C[C@@]2(C)[C@H]1CC[C@]2(O)C(=O)CO [cortisol] | 1 | 0.054 | –
3 | C[C@]12C=CC(=O)C=C1CC[C@@H]1[C@@H]2[C@@H](O)C[C@@]2(C)[C@H]1CC[C@]2(O)C(=O)CO [prednisolone] | 1.7 | 0.013 | 4-5 times
4 | C=C1C[C@H]2[C@@H]3CCC4=CC(=O)C=C[C@]4(C)[C@H]3[C@@H](O)C[C@]2(C)[C@@]1(O)C(=O)CO [prednylidene] | 182 | 0.0011 | –
5 | C[C@]12C=CC(=O)C=C1CC[C@H]1[C@@H]3C[C@@H](O)[C@](O)(C(=O)CO)[C@@]3(C)C[C@H](O)[C@@]12F [triamcinolone] | 0.35 | 0.0002 | –
